# Results published in patent US11123351B2, “Pharmaceutical formulation of 3-alpha-ethynyl-3-beta-hydroxyandrostan-17-one oxime” (priority 2017, dated 2021).
# How the values were obtained:
# [1] = Serum allopregnanolone exposure in the antagonist study; type: in vivo, human
# Description: (§1) The antagonist study, with the purpose of evaluating the biological activity of the IND compound, (EudraCT 2015-004911-19) was randomized and placebo-controlled with a double-blind three-part cross-over design. Study subjects orally received: placebo (A); 3 mg of IND formulation (B); or 30 mg of IND formulation (C); followed 90 minutes later by an intravenous (i.v.) allopregnanolone injection (0.05 mg/kg) and repeated measurements of maximal saccadic eye velocity (SEV) (Saccadometer Plus, Ober Consulting Sp. z o.o, Poland) and sedation/somnolence (visual analogue scale graded from “Absence of sleepiness” to “Falling asleep) for three hours.
# (§2) The IND compound and allopregnanolone were quantified by UPLC/MS/MS Waters Acquity, C18 column, and Waters XEVO-TQ-S triple quadrupole mass spectrometer. As internal standards D4-[3α-ethynyl-3β-hydroxyandrostan-17-one oxime] and D5-allopregnanolone were used, respectively. For analysis of allopregnanolone oxime-derivatization was used to increase sensitivity. Standard- and QC-samples were prepared into human blank plasma/serum. The detection limit for 3α-ethynyl-3β-hydroxyandrostan-17-one oxime was 1 ng/mL, and for allopregnanolone 0.05 ng/ml (0.15 nmol/L).
# [2] = system: GABA-A receptor; assay: Antagonist study: allopregnanolone-induced decrease in maximal saccadic eye velocity (SEV); type: in vivo, human; conditions: responding subjects, responsive period
# Description: as §1
# [3] = system: GABA-A receptor; assay: Antagonist study: allopregnanolone-induced sedation (visual analogue scale); type: in vivo, human; conditions: responding subjects, VAS scores
# Description: as §1
# [4] = Solubility of Compound I in different vehicles (visual inspection); type: physicochemical
# Description: The sample was heated, if required to melt the vehicle, to approx. from 15° C.-80° C. and agitated by vortex or stirrer.
# Addition was continued until a clear solution was not longer obtained after mixing.
# Glycerol monooleate [Cithrol GMO from Croda Health Care] was melted at 50° C. […] The sample was heated and agitated by vortex.
# (0.91 g). The sample was heated to approx. 40° C. and agitated by vortex.
# The sample was agitated by vortex at room temperature.
# The material was stirred at least 30 minutes between each addition.
# Upon completed dissolution the temperature was decreased to 30° C. and the solution was filled in hard gelatin capsules of size 0. The target fill weight was 500 mg where after the capsules were capped and kept at −20° C. for 2-3 hours before storage in refrigerator.
# [5] = Clinical Phase I single ascending dose (SAD) study, pharmacokinetics and safety; type: in vivo, human
# Excerpt: (§3) In total 90 eligible healthy consenting male subjects (age 18-50 years) were included in the study. The oral formulation used was a capsule containing a lipid solution of 3α-ethynyl-3β-hydroxyandrostan-17-one oxime formulated according to Example 10 above (IND formulation in the following).
# (§4) The first in human single ascending dose (SAD) study (EudraCT 2015-004911-19) and the 5 day multiple ascending dose (MAD) study (EudraCT 2016-003651-30) were prospective, randomized, double-blinded and placebo-controlled and designed to assess the safety, tolerability and pharmacokinetic (PK) characteristics of single and multiple ascending oral doses of 3α-ethynyl-3β-hydroxyandrostan-17-one oxime (IND compound) in healthy male volunteers.
# as §2
# (§5) Pharmacokinetic parameters were evaluated using Non-Compartmental Analysis and the software Phoenix WinNonlin® version 6.3 or later (Pharsight Corporation, U.S.A.). Dose proportionality was for the SAD study based on AUC0->∞ and Cmax, and in the MAD study on steady-state AUCτ. The accumulation ratio between the first and last dose was calculated as (steady-state AUCτ/first dose AUC0->∞). Statistical calculations were with IBM SPSS statistics (Version 24, IBM).
# [6] = Solubility of 3α-ethynyl-3β-hydroxyandrostan-17-one oxime in aqueous media; type: physicochemical
# [7] = Clinical Phase I 5 day multiple ascending dose (MAD) study, pharmacokinetics and safety; type: in vivo, human; conditions: for AUC increase / CMax increase: multiple dose
# Excerpt: as §3, §4
# MAD: 50 mg once daily; 50 mg twice daily (BID), i.e. 100 mg/day; or 100 mg twice daily (BID), i.e. 200 mg/day.
# as §2, §5
# [8] = allopregnanolone 0.05 mg/kg i.v. + placebo
# [9] = single dose 3 mg versus next lower dose
# [10] = single dose 10 mg versus next lower dose
# [11] = single dose 30 mg versus next lower dose
# [12] = single dose 100 mg versus next lower dose
# [13] = single dose 200 mg versus next lower dose
# [14] = day 1, 100 mg BID versus next lower dose
# [15] = steady-state, day 5, 100 mg BID versus next lower dose
# [16] = allopregnanolone + Compound I 3 mg oral
# [17] = allopregnanolone + Compound I 30 mg oral
structure (smiles),measurement,setting,value
"CC(=O)[C@H]1CC[C@H]2[C@@H]3CC[C@H]4C[C@H](O)CC[C@]4(C)[C@H]3CC[C@]12C [Allopregnanolone, allopregnanolone, reference compound]",Highest serum level,"[1]; first study time point after i.v. injection 0.05 mg/kg, three study occasions",74 to 82 nM
same,concentration at 10 min,"[1]; human, serum, intravenous, 0.05 mg/kg, 10 min after injection, average",~0.08 µM
same,AUC (ΔSEV),[2]; [8],−3018 ± 656 deg/s × min
same,AUC (ΔSedation),[3]; [8],1928 ± 404 mm × min
"C#C[C@]1(O)CC[C@@]2(C)C(CC[C@@H]3[C@@H]2CC[C@]2(C)/C(=N/O)CC[C@@H]32)C1 (stereo partly drawn) [Compound I, 3α-ethynyl-3β-hydroxyandrostan-17-one oxime]",Concentration that could be dissolved,"[4]; Capric/caprylic glyceride Imwitor 742, heating temperature 60° C.",20000 µg/mL
same,Concentration that could be dissolved,"[4]; Capric/caprylic glyceride Imwitor 742, heating temperature 70° C.",40000 µg/mL
same,Solubility,"[4]; Example 1, Capric/caprylic glycerides, Imwitor 742, 40° C.",20 to 30 mg/g
same,Solubility,"[4]; Example 2, Glyceryl monooleate, Cithrol GMO, melted at 50° C.",8 mg/g
same,Solubility,"[4]; Example 3, Oleoyl macrogol-6 glycerides, Labrafil M1944 CS, approx. 40° C.",5 mg/g
same,Solubility,"[4]; Example 5, Propylenglycol monocaprylate type I, Capryol PGMC, room temperature",15 mg/g
same,Solubility,"[4]; Example 6, Propylenglycol monocaprylate type II, Capryol 90, room temperature",23 mg/g
same,Solubility,"[4]; Example 7, Polyoxyethylene-8 caprylic/capric glycerides, Acconon MC8-2, room temperature",2 mg/g
same,Solubility,"[4]; propylene glycol monolaurate type I (Lauroglycol FCC), oil or lipid, thermodynamic from solid, Example 4, Propylenglycol monolaurate type I, Lauroglycol FCC, room temperature, read-out: Solubility",6000 µg/mL
same,Serious adverse events (SAEs) and dose-limiting toxicity,"[5]; healthy adult males, single dose up to 200 mg",neither serious adverse events (SAEs) nor dose-limiting toxicity was observed
same,Dose proportionality constant β for AUC0-∞,"[5]; human, in vivo, po, 200 mg",1.12
same,Dose proportionality constant β for CMax,"[5]; human, in vivo, po, 200 mg",1.01
same,AUC(0-inf),"[5]; male, human, in vivo, 1 mg",0.067 µg·h/mL
same,Cmax,"[5]; male, human, in vivo, 1 mg",0.013 µg/mL
same,AUC(0-inf),"[5]; male, human, in vivo, 3 mg",0.215 µg·h/mL
same,Cmax,"[5]; male, human, in vivo, 3 mg",0.044 µg/mL
same,AUC(0-inf),"[5]; male, human, in vivo, 10 mg",0.785 µg·h/mL
same,Cmax,"[5]; male, human, in vivo, 10 mg",0.149 µg/mL
same,AUC(0-inf),"[5]; male, human, in vivo, 30 mg",2.56 µg·h/mL
same,Cmax,"[5]; male, human, in vivo, 30 mg",0.464 µg/mL
same,AUC(0-inf),"[5]; male, human, in vivo, 100 mg",11.9 µg·h/mL
same,Cmax,"[5]; male, human, in vivo, 100 mg",1.53 µg/mL
same,AUC(0-inf),"[5]; male, human, in vivo, 200 mg",25.8 µg·h/mL
same,Cmax,"[5]; male, human, in vivo, 200 mg",2.77 µg/mL
same,Tmax,"[5]; male, human, in vivo, po",1 to 2 h
same,AUC increase,[5]; [9],3.2 fold
same,CMax increase,[5]; [9],3.4 fold
same,AUC increase,[5]; [10],3.7 fold
same,CMax increase,[5]; [10],3.4 fold
same,AUC increase,[5]; [11],3.3 fold
same,CMax increase,[5]; [11],3.1 fold
same,AUC increase,[5]; [12],4.6 fold
same,CMax increase,[5]; [12],3.3 fold
same,AUC increase,[5]; [13],2.2 fold
same,CMax increase,[5]; [13],1.8 fold
same,Solubility,"[6]; FaSSIF (fasted-state simulated intestinal fluid), fassif",7 µg/mL
same,Solubility,"[6]; FeSSIF (fed-state simulated intestinal fluid), fessif",19 µg/mL
same,Solubility,"[6]; SGF (simulated gastric fluid), simulated gastric fluid",0.2 µg/mL
same,Solubility,[6]; water,1.5 µg/mL
same,Serious adverse events (SAEs) and dose-limiting toxicity,"[7]; healthy adult males, up to 100 mg every 12 hours for 5 days",neither serious adverse events (SAEs) nor dose-limiting toxicity was observed
same,Increase in AUC0->∞ when the dose was doubled,"[7]; human, in vivo",1.9 times
same,AUC increase,[7]; [14],1.9 fold
same,CMax increase,[7]; [14],1.4 fold
same,AUC increase,[7]; [15],1.9 fold
same,CMax increase,[7]; [15],1.6 fold
same,AUC (ΔSEV),[2]; [16],−1592 ± 924 deg/s × min
same,AUC (ΔSEV),[2]; [17],−909 ± 798 deg/s × min
same,AUC (ΔSedation),[3]; [16],698 ± 332 mm × min
same,AUC (ΔSedation),[3]; [17],416 ± 469 mm × min
